Measurements as given in the supplement of paper PMC10883282.

Tests used:
Assay in all cases: relative viability vs DMSO control (72 h) (fraction); higher = more viable cells
VA-ES-BJ = system: VA-ES-BJ
How it was run: (§1)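 Sarcoma cell lines were seeded in 384-well plates at densities set to reach 80–90% confluence. After 24 h, 2.5 µl of serially diluted compound was added (source plates 10 mM to 0.0002 mM), and plates were held 72 h at 37 °C, 5% CO2, with 0.1% DMSO vehicle and a 5 µM positive control. Relative viability came from ATPLite readings as percent growth, averaged over up to triplicate wells. Data were rescaled so full viability equals 1 and none equals 0.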

SK-LMS-1 = system: SK-LMS-1
How it was run: as §1

SW1353 = system: SW1353
How it was run: as §1

SW684 = system: SW684
How it was run: as §1

A204 = system: A204
How it was run: as §1

MES-SA = system: MES-SA
How it was run: as §1

HT1080 = system: HT1080
How it was run: as §1

G401 = system: G401
How it was run: as §1

SYO-1 = system: SYO-1
How it was run: as §1

SW872 = system: SW872
How it was run: as §1

KHOS-NP = system: KHOS-NP
How it was run: as §1

HS729 = system: HS729
How it was run: as §1

FC(F)(F)c1ccc(CNc2ccc(Cc3c[nH]c4ncc(Cl)cc34)cn2)cn1 [Pexidartinib]
Settings | relative viability
A204, 0.00017 µM | 1.14
A204, 0.00051 µM | 1.14
A204, 0.00152 µM | 1.09
A204, 0.00457 µM | 1.08
A204, 0.01372 µM | 1.07
A204, 0.04115 µM | 1.08
A204, 0.1235 µM | 1.05
A204, 0.3704 µM | 0.898
A204, 1.111 µM | 0.576
A204, 3.333 µM | 0.463
A204, 10 µM | 0.393
G401, 0.00017 µM | 1.03
G401, 0.00051 µM | 1.036
G401, 0.00152 µM | 1.03
G401, 0.00457 µM | 1.05
G401, 0.01372 µM | 1.02
G401, 0.04115 µM | 1
G401, 0.1235 µM | 0.685
G401, 0.3704 µM | 0.9956
G401, 1.111 µM | 0.9873
G401, 3.333 µM | 0.95
G401, 10 µM | 0.8332
HS729, 0.00017 µM | 1.05
HS729, 0.00051 µM | 1.01
HS729, 0.00152 µM | 1.01
HS729, 0.00457 µM | 0.978
HS729, 0.01372 µM | 0.955
HS729, 0.04115 µM | 0.962
HS729, 0.1235 µM | 0.903
HS729, 0.3704 µM | 0.902
HS729, 1.111 µM | 0.861
HS729, 3.333 µM | 0.767
HS729, 10 µM | 0.683
HT1080, 0.00017 µM | 1.14
HT1080, 0.00051 µM | 1.12
HT1080, 0.00152 µM | 1.12
HT1080, 0.00457 µM | 1.05
HT1080, 0.01372 µM | 1.1
HT1080, 0.04115 µM | 1.1
HT1080, 0.1235 µM | 1.06
HT1080, 0.3704 µM | 1.08
HT1080, 1.111 µM | 1.05
HT1080, 3.333 µM | 1.065
HT1080, 10 µM | 1.02
KHOS-NP, 0.00017 µM | 1.106
KHOS-NP, 0.00051 µM | 1.1
KHOS-NP, 0.00152 µM | 1.084
KHOS-NP, 0.00457 µM | 1.08
KHOS-NP, 0.01372 µM | 1.07
KHOS-NP, 0.04115 µM | 1.05
KHOS-NP, 0.1235 µM | 1.05
KHOS-NP, 0.3704 µM | 1.032
KHOS-NP, 1.111 µM | 1.024
KHOS-NP, 3.333 µM | 1.022
KHOS-NP, 10 µM | 0.987
MES-SA, 0.00017 µM | 0.96
MES-SA, 0.00051 µM | 0.947
MES-SA, 0.00152 µM | 0.954
MES-SA, 0.00457 µM | 0.936
MES-SA, 0.01372 µM | 0.911
MES-SA, 0.04115 µM | 0.934
MES-SA, 0.1235 µM | 0.923
MES-SA, 0.3704 µM | 0.883
MES-SA, 1.111 µM | 0.892
MES-SA, 3.333 µM | 0.872
MES-SA, 10 µM | 0.69
SK-LMS-1, 0.00017 µM | 1.03
SK-LMS-1, 0.00051 µM | 1.06
SK-LMS-1, 0.00152 µM | 1.05
SK-LMS-1, 0.00457 µM | 1.04
SK-LMS-1, 0.01372 µM | 1.03
SK-LMS-1, 0.04115 µM | 1.03
SK-LMS-1, 0.1235 µM | 1.05
SK-LMS-1, 0.3704 µM | 1.02
SK-LMS-1, 1.111 µM | 0.995
SK-LMS-1, 3.333 µM | 1
SK-LMS-1, 10 µM | 0.864
SW684, 0.00017 µM | 1.14
SW684, 0.00051 µM | 1.2
SW684, 0.00152 µM | 1.19
SW684, 0.00457 µM | 1.2
SW684, 0.01372 µM | 1.15
SW684, 0.04115 µM | 1.15
SW684, 0.1235 µM | 1.16
SW684, 0.3704 µM | 1.13
SW684, 1.111 µM | 1.13
SW684, 3.333 µM | 1.14
SW684, 10 µM | 1.12
SW872, 0.00017 µM | 1.12
SW872, 0.00051 µM | 1.13
SW872, 0.00152 µM | 1.1
SW872, 0.00457 µM | 1.08
SW872, 0.01372 µM | 1.05
SW872, 0.04115 µM | 1.06
SW872, 0.1235 µM | 1.05
SW872, 0.3704 µM | 1.03
SW872, 1.111 µM | 1.01
SW872, 3.333 µM | 0.999
SW872, 10 µM | 0.974
SW1353, 0.00017 µM | 1.07
SW1353, 0.00051 µM | 1.03
SW1353, 0.00152 µM | 0.993
SW1353, 0.00457 µM | 1.02
SW1353, 0.01372 µM | 0.988
SW1353, 0.04115 µM | 1.01
SW1353, 0.1235 µM | 1
SW1353, 0.3704 µM | 0.975
SW1353, 1.111 µM | 0.897
SW1353, 3.333 µM | 0.896
SW1353, 10 µM | 0.85
SYO-1, 0.00017 µM | 1.03
SYO-1, 0.00051 µM | 1.03
SYO-1, 0.00152 µM | 0.953
SYO-1, 0.00457 µM | 0.94
SYO-1, 0.01372 µM | 0.927
SYO-1, 0.04115 µM | 0.925
SYO-1, 0.1235 µM | 0.868
SYO-1, 0.3704 µM | 0.8
SYO-1, 1.111 µM | 0.733
SYO-1, 3.333 µM | 0.701
SYO-1, 10 µM | 0.659
VA-ES-BJ, 0.00017 µM | 1.07
VA-ES-BJ, 0.00051 µM | 1.068
VA-ES-BJ, 0.00152 µM | 1.07
VA-ES-BJ, 0.00457 µM | 1.06
VA-ES-BJ, 0.01372 µM | 1.05
VA-ES-BJ, 0.04115 µM | 1.04
VA-ES-BJ, 0.1235 µM | 1.06
VA-ES-BJ, 0.3704 µM | 1.04
VA-ES-BJ, 1.111 µM | 1.03
VA-ES-BJ, 3.333 µM | 1.03
VA-ES-BJ, 10 µM | 1.05
